Assay results published in patent US20240279278A1, “NMU RECEPTOR 2 AGONISTS” (Boehringer Ingelheim International GmbH, priority 2023, published 2024).
Residues, ends and D or L forms follow the SMILES beside them.

Columns and labels:
human NMUR2 receptor [1] = target: T1, human NMUR2 receptor (Homo sapiens, UniProt Q9GZQ4); assay: IP1 Gq HTRF assay, activation of human NMUR2 in buffer; format: cell-based; parameters: expressed in transfected cells; host or cells: CHO-K1; details: CHO-K1 cells expressing human NMUR2, stimulation buffer with 0.1% BSA; read-out: EC50 (hNMUR2) buffer
From the text: Example 3: IP1 Gq HTRF Assay Activation of Human NMUR2 or Human NMUR1 in Buffer Application of the Homogenous Time Resolved Fluorescence (HTRF) technology optimized for Gq coupled receptors has been described in detail in the Cisbio IP-One Gq kit manual. In brief, a FRET signal (FRET: fluorescence resonance energy transfer) is generated between the donor label of an IP-One antibody (anti-IP1-Tb) and the acceptor label of a tagged IP-One (IP1-d2). Agonism of a Gq coupled receptor increases intracellular IP-One, which competes with labeled IP-One and leads to a reduction of the FRET signal. Frozen stocks of CHO-K1 cells stably expressing the human NMUR1 or NMUR2 receptor were thawed and 5000 cells were seeded in culture medium (HAM'S F12, 10% FCS) into each well of a 384-well assay plate. After seeding, cells were incubated for 24 h in a humidified incubator at 37° C. and 5% CO2. Next, cells were washed once with 50 μL of wash buffer (20 mM Hepes, 1×HBSS, pH 7.4), followed by addition of either 10 μL of stimulation buffer (20 mM Hepes, 1×HBSS, 50 mM LiCl, 0.1% BSA, pH 7.4). Peptide agonists to be tested were dissolved in 100% DMSO and pre-diluted in stimulation buffer at a suitable concentration range for an 8 pt dose-response curve. 5 μL of peptide pre-dilution were then added to each well, followed by another 5 μL of stimulation buffer to give a final concentration of 1% DMSO. Samples were subsequently incubated for 1 hour in a humidified incubator at 37° C. After addition of 5 μL each of IP1-d2 and anti-IP1-Tb, samples were incubated for another 1 hour at room temperature and FRET signals (ratio 665 nm/620 nm) were measured. EC50 values were calculated by nonlinear regression using a 4-parameter sigmoidal curve fit.

human NMUR2 receptor [2] = target: T1, human NMUR2 receptor; assay: IP1 Gq HTRF assay, activation of human NMUR2 in human plasma; format: cell-based; parameters: expressed in transfected cells; host or cells: CHO-K1; details: CHO-K1 cells expressing human NMUR2, 100% human plasma; read-out: EC50 (hNMUR2) human plasma
From the text: Example 4: IP1 Gq HTRF Assay Activation of Human NMUR2 in Human Plasma Application of the Homogenous Time Resolved Fluorescence (HTRF) technology optimized for Gq coupled receptors has been described in detail in the Cisbio IP-One Gq kit manual. In brief, a FRET signal is generated between the donor label of an IP-One antibody (anti-IP1-Tb) and the acceptor label of a tagged IP-One (IP1-d2). Agonism of a Gq coupled receptor increases intracellular IP-One, which competes with labeled IP-One and leads to a reduction of the FRET signal. Frozen stocks of CHO-K1 cells stably expressing the human NMUR1 receptor or human NMUR2 receptor were thawed and 5000 cells were seeded in culture medium (HAM'S F12, 10% FCS) into each well of a 384-well assay plate. After seeding, cells were incubated for 24 h in a humidified incubator at 37° C. and 5% CO2. Next, cells were washed once with […] of wash buffer (20 mM Hepes, 1×HBSS, pH 7.4), followed by addition of […] (100% human plasma, 50 mM LiCl). Peptide agonists to be tested were dissolved in 100% DMSO and pre-diluted in plasma at a suitable concentration range for an 8 pt dose-response curve. 5 μL of peptide pre-dilution were then added to each well, followed by another 5 μL of plasma to give a final concentration of 1% DMSO. Samples were subsequently incubated for 1 hour in a humidified incubator at 37° C. The plasma solution was replaced by 20 μL of stimulation buffer. After addition of 5 μL each of IP1-d2 and anti-IP1-Tb, samples were incubated for another 1 hour at room temperature and FRET signals (ratio 665 nm/620 nm) were measured. EC50 values were calculated by nonlinear regression using a 4-parameter sigmoidal curve fit.

T1 sequence (Q9GZQ4 whole entry): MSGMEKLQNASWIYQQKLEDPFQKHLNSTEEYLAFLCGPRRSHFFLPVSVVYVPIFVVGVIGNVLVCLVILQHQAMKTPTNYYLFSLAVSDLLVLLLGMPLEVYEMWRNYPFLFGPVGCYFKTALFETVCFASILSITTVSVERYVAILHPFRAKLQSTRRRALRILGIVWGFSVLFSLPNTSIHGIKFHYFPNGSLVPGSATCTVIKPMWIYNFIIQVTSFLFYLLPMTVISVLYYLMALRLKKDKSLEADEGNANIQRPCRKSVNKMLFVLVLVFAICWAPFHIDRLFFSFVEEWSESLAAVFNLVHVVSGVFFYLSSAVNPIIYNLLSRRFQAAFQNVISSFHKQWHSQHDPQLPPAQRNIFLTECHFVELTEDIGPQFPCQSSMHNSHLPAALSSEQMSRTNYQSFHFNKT

| SMILES | EC50 (human NMUR2 receptor [1]) [nM] | EC50 (human NMUR2 receptor [2]) [nM] |
| --- | --- | --- |
| CCCC[C@H](NC(=O)[C@H](CC(C)C)N(C)C(=O)[C@H](Cc1ccccc1)NC(=O)[C@H](Cc1ccc(O)cc1)NC(=O)CN1CCN(CCNC(=O)CN(C)C(=O)CN(C)C(=O)CN(C)C(=O)CN(C)C(=O)CN(C)C(=O)CN(C)C(=O)CN(C)C(=O)CN(C)C(=O)CN(C)C(=O)CN(C)C(=O)CN(C)C(=O)CN(C)C(=O)CC[C@H](NC(=O)CC[C@H](NC(=O)CC[C@H](NC(=O)CC[C@H](NC(=O)CCCCCCCCCCCCCCCCC(=O)O)C(=O)O)C(=O)O)C(=O)O)C(=O)O)CC1)C(=O)N[C@@H](CCCN)C(=O)N1CCC[C@H]1C(=O)N[C@@H](CCCNC(=N)N)C(=O)NCC(N)=O [Compound 5, C18DA-gGlu4-Sar12-AEPipAc-Tyr-Phe-NMeLeu-Nle-Orn-Pro-Arg-Gly-NH2] | 1.8 | 10 |
| CCCC[C@H](NC(=O)[C@H](CC(C)C)N(C)C(=O)[C@H](Cc1ccccc1)NC(=O)[C@H](Cc1ccc(O)cc1)NC(=O)CN1CCN(CCNC(=O)CN(C)C(=O)CN(C)C(=O)CN(C)C(=O)CN(C)C(=O)CN(C)C(=O)CN(C)C(=O)CN(C)C(=O)CN(C)C(=O)CN(C)C(=O)CN(C)C(=O)CN(C)C(=O)CN(C)C(=O)CC[C@H](NC(=O)CC[C@H](NC(=O)CC[C@H](NC(=O)CC[C@H](NC(=O)CCCCCCCCCCCCCCCCCCC(=O)O)C(=O)O)C(=O)O)C(=O)O)C(=O)O)CC1)C(=O)N[C@@H](CCN)C(=O)N1CCC[C@H]1C(=O)N[C@@H](CCCNC(=N)N)C(=O)NCC(N)=O [Compound 15, C20DA-gGlu4-Sar12-AEPipAc-Tyr-Phe-NMeLeu-Nle-Dbu-Pro-Arg-Gly-NH2] | 3.2 | 10.8 |
| CCCC[C@H](NC(=O)[C@H](CC(C)C)N(C)C(=O)[C@H](Cc1ccccc1)NC(=O)[C@H](Cc1ccc(O)cc1)NC(=O)CN1CCN(CCNC(=O)CN(C)C(=O)CN(C)C(=O)CN(C)C(=O)CN(C)C(=O)CN(C)C(=O)CN(C)C(=O)CN(C)C(=O)CN(C)C(=O)CN(C)C(=O)CN(C)C(=O)CN(C)C(=O)CN(C)C(=O)CN(C)C(=O)CN(C)C(=O)CN(C)C(=O)CC[C@H](NC(=O)CC[C@H](NC(=O)CC[C@H](NC(=O)CC[C@H](NC(=O)CCCCCCCCCCCCCCCCCCC(=O)O)C(=O)O)C(=O)O)C(=O)O)C(=O)O)CC1)C(=O)N[C@@H](CCCCN)C(=O)N1CCC[C@H]1C(=O)N[C@@H](CCCNC(=N)N)C(=O)NCC(N)=O [Compound 17, C20DA-gGlu4-Sar15-AEPipAc-Tyr-Phe-NMeLeu-Nle-Lys-Pro-Arg-Gly-NH2] (HELM PEPTIDE1{[O=C(O)CCCCCCCCCCCCCCCCCCC(=O)[*:2]].[gGlu].[gGlu].[gGlu].[gGlu].[Sar].[Sar].[Sar].[Sar].[Sar].[Sar].[Sar].[Sar].[Sar].[Sar].[Sar].[Sar].[Sar].[Sar].[Sar].[O=C(CN1CCN(CCN[*:1])CC1)[*:2]].Y.F.[meL].[Nle].K.P.R.G.[am]}$$$$V2.0) | 4.7 | 24.8 |
| CCCC[C@H](NC(=O)[C@H](CC(C)C)N(C)C(=O)[C@H](Cc1ccccc1)NC(=O)[C@H](Cc1ccc(O)cc1)NC(=O)CN1CCN(CCNC(=O)CN(C)C(=O)CN(C)C(=O)CN(C)C(=O)CN(C)C(=O)CN(C)C(=O)CN(C)C(=O)CN(C)C(=O)CN(C)C(=O)CN(C)C(=O)CN(C)C(=O)CN(C)C(=O)CN(C)C(=O)CC[C@H](NC(=O)CC[C@H](NC(=O)CC[C@H](NC(=O)CC[C@H](NC(=O)CCCCCCCCCCCCCCCCCCC(=O)O)C(=O)O)C(=O)O)C(=O)O)C(=O)O)CC1)C(=O)N[C@@H](CCCN)C(=O)N1CCC[C@H]1C(=O)N[C@@H](CCCNC(=N)N)C(=O)NCC(N)=O [Compound 40, C20DA-gGlu4-Sar12-AEPipAc-Tyr-Phe-NMeLeu-Nle-Orn-Pro-Arg-Gly-NH2] | 4.5 | 11.3 |
